Measured values reported in US9359616B2, “Ribosomal polynucleotides and related expression systems” (The Scripps Research Institute, priority 2012, dated 2016).

Key:
[1] = system: mutated subunits (G693A 18S rRNA); assay: 35S-Met/Cys pulse labeling of transfected N2a cells cultured with increasing concentrations of pactamycin (G693A mutated ribosomes); assay type: cell-based, mouse; settings: even at the highest concentration tested of 6,400 ng/ml pactamycin; N2a cells (FIG. 4d)
[2] = system: wild type 40S subunits; assay: 35S-Met/Cys pulse labeling of transfected N2a cells cultured with increasing concentrations of pactamycin (wild type ribosomes); assay type: cell-based, mouse; settings: 100 ng/ml pactamycin, could be further blocked at higher concentrations, SDS-PAGE of 35S-labeled lysates (FIG. 4d)
From the text: There were no reports of functionally tested examples of nucleotide changes conferring antibiotic resistance in higher eukaryotes. Pactamycin affects translation by binding to rRNA in the E-site of the small subunit and disrupting the positioning of mRNA at this site. The result of pactamycin-binding is a block in […] and the accumulation of di-peptides resulting from aborted initiation events. Analyzed were the effects of mutations in mouse 18S rRNA at four residues, G963, A964, C1065 and C1066 in SEQ ID NO:23. These residues correspond, respectively, to positions 693, 694, 795 and 796 at the E-site of E. coli 16S rRNA which were identified from crystal structures. Unless otherwise noted, the numbering of these sites in mammalian 18S rRNA sequences is based on that in E. coli 16S rRNA. […] Pactamycin resistance was assessed by 35S-Met/Cys pulse labeling of transfected cells in the presence of 100 ng/ml antibiotic. […] Mutated ribosomes were also analyzed for their ability to translate a luciferase mRNA in cells transfected with a luciferase reporter plasmid (pGL4.13), and cultured in the presence of 100 ng/ml pactamycin (FIG. 4b).
The levels of synthetic 18S rRNA for constructs with each mutation were monitored using the hybridization tag and found no substantial differences that could account for the difference in translation between G693A and the other mutations (FIG. 4c). […]

`CC(=O)c1cccc(N[C@H]2[C@H](N)[C@@](NC(=O)N(C)C)([C@H](C)O)[C@@](C)(O)[C@@]2(O)COC(=O)c2c(C)cccc2O)c1` [pactamycin] was tested, and the “translation from the mutated subunits” value [1] was “unaffected” and the “translation from wild type 40S subunits” value [2] was “substantially blocked”.
